Measured values from BigSolDB 2.1.

COc1cccc(C=O)c1O
solubility (mole fraction)
Conditions | 273.15 K | 278.15 K | 283.15 K | 288.15 K | 293.15 K | 298.15 K | 303.15 K
in ethanol | 0.0401 | 0.0526 | 0.0774 | 0.138 | 0.226 | 0.38 | 0.615
in n-propanol | 0.0312 | 0.0388 | 0.0552 | 0.0807 | 0.134 | 0.299 | 0.554
in water | – | 0.000268 | 0.000332 | 0.0004 | 0.000496 | 0.000578 | 0.000786
